Data as given in paper PMC6511041 (Proceedings of the National Academy of Sciences of the …, 2019).

Experiments:
Olfr1062 = biological target: T1, Olfr1062 (Mus musculus, UniProt Q7TR71); experiment: Dual-Glo firefly/Renilla luciferase reporter, dose-response; assay type: cell-based; settings: odorant up to 0.3 mM; competitive-binding model fit, single odorant
T1 sequence (Q7TR71 1-315): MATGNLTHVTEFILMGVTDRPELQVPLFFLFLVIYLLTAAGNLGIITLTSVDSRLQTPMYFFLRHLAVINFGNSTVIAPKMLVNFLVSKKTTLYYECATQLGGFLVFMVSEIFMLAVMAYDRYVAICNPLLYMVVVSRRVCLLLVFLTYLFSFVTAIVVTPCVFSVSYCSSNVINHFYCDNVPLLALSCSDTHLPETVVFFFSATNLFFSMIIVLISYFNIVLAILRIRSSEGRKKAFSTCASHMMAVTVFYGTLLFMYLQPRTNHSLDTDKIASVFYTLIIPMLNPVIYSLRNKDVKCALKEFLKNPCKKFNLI

OR5P3 = biological target: T2, OR5P3 (Homo sapiens, UniProt Q8WZ94); experiment: as above; assay type: cell-based; settings: odorant up to 0.3 mM; competitive-binding model fit, single odorant
T2 sequence (Q8WZ94 1-311): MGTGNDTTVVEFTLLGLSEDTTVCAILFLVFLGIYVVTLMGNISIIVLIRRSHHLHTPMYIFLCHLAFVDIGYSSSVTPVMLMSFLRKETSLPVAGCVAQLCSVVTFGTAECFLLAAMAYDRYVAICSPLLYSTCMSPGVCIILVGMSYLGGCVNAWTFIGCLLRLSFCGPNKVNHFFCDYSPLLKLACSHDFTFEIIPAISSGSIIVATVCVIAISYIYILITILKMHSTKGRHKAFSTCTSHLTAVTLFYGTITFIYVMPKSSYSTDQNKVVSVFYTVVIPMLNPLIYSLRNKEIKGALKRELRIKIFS

SMILES: CC(=O)c1ccccc1 [acetophenone]
- EC50 (Olfr1062): Olfr1062, synergy between all three pairs
- EC50 (OR5P3): OR5P3, synergy between coumarin and acetophenone

SMILES: O=c1ccc2ccccc2o1 [coumarin]
- EC50 (Olfr1062): Olfr1062, synergy between all three pairs
- EC50 (OR5P3): OR5P3, synergy between coumarin and acetophenone

SMILES: C=CCc1ccc(O)c(OC)c1 [eugenol]
- EC50 (Olfr1062): Olfr1062, synergy between all three pairs
